Source: patent US8883799B2, “Tricyclic PI3K inhibitor compounds and methods of use” (Genentech, Inc., priority 2010, dated 2014)

Columns and labels:
[1] = system: MDA-MB-361.1; assay: In vitro cell proliferation assay (CellTiter-Glo), MDA-MB-361.1; type: cell-based; conditions: Cell line: MDA-MB-361.1; Tissue type: breast; Mutation Status: PI3K; read-out: EC50 (μmole)
Experimental: (§1) Efficacy of Formula I compounds was measured by a cell proliferation assay employing the following protocol (Promega Corp. Technical Bulletin TB288; Mendoza et al (2002) Cancer Res. 62:5485-5488):
(§2) 1. An aliquot of 100 μl of cell culture containing about 10^4 cells (PC3, Detroit562, or MDAMB361.1) in medium was deposited in each well of a 384-well, opaque-walled plate.
(§3) 2. Control wells were prepared containing medium and without cells.
(§4) 3. The compound was added to the experimental wells and incubated for 3-5 days.
(§5) 4. The plates were equilibrated to room temperature for approximately 30 minutes.
(§6) 5. A volume of CellTiter-Glo® Reagent equal to the volume of cell culture medium present in each well was added.
(§7) 6. The contents were mixed for 2 minutes on an orbital shaker to induce cell lysis.
(§8) 7. The plate was incubated at room temperature for 10 minutes to stabilize the luminescence signal.
(§9) 8. Luminescence was recorded and reported in graphs as RLU=relative luminescence units.
(§10) Alternatively, cells were seeded at optimal density in a 96 well plate and incubated for 4 days in the presence of test compound. Alamar Blue™ was subsequently added to the assay medium, and cells were incubated for 6 hr before reading at 544 nm excitation, 590 nm emission. EC50 values were calculated using a sigmoidal dose response curve fit. The term EC50 refers to the half maximal effective concentration and is the concentration at which a drug induces a response halfway between the baseline and maximum after some specified exposure time. It is commonly used as a measure of drug potency.
(§11) The anti-proliferative effects of Formula I exemplary compounds were measured by the CellTiter-Glo® Assay against various tumor cell lines, including the following: […]

[2] = system: PC3; assay: In vitro cell proliferation assay (CellTiter-Glo), PC3; type: cell-based; conditions: Homo sapiens, PC-3; Cell line: PC3; Tissue type: prostate; Mutation Status: PTEN; read-out: EC50 (μmole)
Experimental: as §1, §2, §3, §4, §5, §6, §7, §8, §9, §10, §11

[3] = target: T1, p110 alpha PI3K (Homo sapiens, UniProt P42336); assay: p110α (alpha) PI3K binding assay (fluorescence polarization; alternatively radiometric); conditions: read-out: IC50, Ki (μmole) PI3K, p110 alpha binding assay
T1 construct: purchased Upstate Cell Signaling Solutions, Charlottesville, Va
Experimental: Binding Assays: Initial polarization experiments were performed on an Analyst HT® 96-384 (Molecular Devices Corp, Sunnyvale, Calif.). […] After an incubation time of 30 minutes at room temperature, the reactions were stopped by the addition of GRP-1 and PIP3-TAMRA probe (Echelon-Inc., Salt Lake City, Utah) 100 nM and 5 nM final concentrations respectively. Read with standard cut-off filters for the rhodamine fluorophore (λex=530 nm; λem=590 nm) in 384-well black low volume Proxiplates® (PerkinElmer, Wellesley, Mass.) Fluorescence polarization values were plotted as a function of the protein concentration, and the EC50 values were obtained by fitting the data to a 4-parameter equation using KaleidaGraph® software (Synergy software, Reading, Pa.). This experiment also establishes the appropriate protein concentration to use in subsequent competition experiments with inhibitors.
After an incubation time of 30 minutes at room temperature, the reactions were stopped by the addition of GRP-1 and PIP3-TAMRA probe (Echelon-Inc., Salt Lake City, Utah) 100 nM and 5 nM final concentrations respectively. Read with standard cut-off filters for the rhodamine fluorophore (λex=530 nm; λem=590 nm) in 384-well black low volume PROXIPLATES® (PerkinElmer, Wellesley, Mass.) Fluorescence polarization values were plotted as a function of the antagonist concentration, and the IC50 values were obtained by fitting the data to a 4-parameter equation in Assay Explorer® software (MDL, San Ramon, Calif.).
The Formula I compound was serially diluted in 100% DMSO. The kinase reaction was incubated for 1 hr at room temperature, and the reaction was terminated by the addition of PBS. IC50 values were subsequently determined using sigmoidal dose-response curve fit (variable slope).

T1 sequence (P42336 whole entry): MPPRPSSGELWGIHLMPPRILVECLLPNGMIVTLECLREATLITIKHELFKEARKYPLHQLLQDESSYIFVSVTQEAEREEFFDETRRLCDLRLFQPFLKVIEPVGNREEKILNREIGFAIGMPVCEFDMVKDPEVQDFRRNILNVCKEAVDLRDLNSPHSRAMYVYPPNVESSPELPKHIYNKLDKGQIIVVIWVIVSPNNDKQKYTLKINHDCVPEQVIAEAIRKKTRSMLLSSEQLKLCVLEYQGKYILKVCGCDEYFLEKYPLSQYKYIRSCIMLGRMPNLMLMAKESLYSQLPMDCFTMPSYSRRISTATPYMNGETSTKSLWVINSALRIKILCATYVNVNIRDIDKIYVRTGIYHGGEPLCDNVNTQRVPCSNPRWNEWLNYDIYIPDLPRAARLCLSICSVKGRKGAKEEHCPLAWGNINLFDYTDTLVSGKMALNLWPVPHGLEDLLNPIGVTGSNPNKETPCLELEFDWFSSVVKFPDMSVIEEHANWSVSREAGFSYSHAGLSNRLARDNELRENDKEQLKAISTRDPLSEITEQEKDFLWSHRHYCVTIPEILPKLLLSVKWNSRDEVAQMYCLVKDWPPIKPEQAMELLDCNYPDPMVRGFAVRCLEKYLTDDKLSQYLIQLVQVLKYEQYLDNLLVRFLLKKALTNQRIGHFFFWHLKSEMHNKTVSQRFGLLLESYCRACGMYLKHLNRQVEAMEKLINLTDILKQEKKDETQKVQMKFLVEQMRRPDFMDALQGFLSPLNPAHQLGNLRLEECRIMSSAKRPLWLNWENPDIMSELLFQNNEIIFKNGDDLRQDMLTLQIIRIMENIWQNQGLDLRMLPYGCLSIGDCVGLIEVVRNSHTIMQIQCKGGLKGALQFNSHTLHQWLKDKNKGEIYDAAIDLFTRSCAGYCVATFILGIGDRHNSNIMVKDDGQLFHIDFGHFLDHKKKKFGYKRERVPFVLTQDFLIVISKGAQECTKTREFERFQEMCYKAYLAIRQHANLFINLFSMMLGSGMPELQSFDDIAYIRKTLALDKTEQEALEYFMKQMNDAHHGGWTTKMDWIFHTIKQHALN
T1 sequence (P27986 whole entry partner): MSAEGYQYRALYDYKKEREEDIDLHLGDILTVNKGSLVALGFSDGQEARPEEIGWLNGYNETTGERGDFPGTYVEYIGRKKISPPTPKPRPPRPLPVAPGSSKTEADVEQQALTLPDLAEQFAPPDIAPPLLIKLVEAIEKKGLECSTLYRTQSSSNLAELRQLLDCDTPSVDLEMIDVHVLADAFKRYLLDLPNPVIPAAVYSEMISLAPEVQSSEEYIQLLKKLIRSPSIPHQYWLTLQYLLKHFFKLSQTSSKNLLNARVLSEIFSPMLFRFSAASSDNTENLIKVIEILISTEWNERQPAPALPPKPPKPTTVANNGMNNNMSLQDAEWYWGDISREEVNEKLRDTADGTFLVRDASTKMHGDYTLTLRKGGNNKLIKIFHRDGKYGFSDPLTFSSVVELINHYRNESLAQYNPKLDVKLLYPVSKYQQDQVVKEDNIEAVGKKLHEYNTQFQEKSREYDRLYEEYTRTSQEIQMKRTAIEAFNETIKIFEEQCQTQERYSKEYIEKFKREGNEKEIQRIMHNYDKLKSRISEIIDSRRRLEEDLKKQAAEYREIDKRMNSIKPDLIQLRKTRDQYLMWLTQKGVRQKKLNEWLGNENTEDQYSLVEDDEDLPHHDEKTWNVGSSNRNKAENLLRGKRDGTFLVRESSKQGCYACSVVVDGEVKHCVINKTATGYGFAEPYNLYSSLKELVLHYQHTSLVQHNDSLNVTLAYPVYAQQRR

Which EC50 [1] does the source give for CCNC(=O)Nc1ccc(-c2nc(N3CCOCC3)c3c(n2)C2(C)CCOC2N3C)cc1 (centres unmarked) [Compound 101, 1-[4-(3a,8-dimethyl-7-morpholin-4-yl-3,3a,8,8a-tetrahydro-2h-1-oxa-4,6,8-triaza-cyclopenta[a]inden-5-yl)-phenyl]-3-ethyl-urea] here?
Its EC50 is 315 nM.

What about the EC50 [2] of the same compound?
Its EC50 is 208 nM.

Which results are given for Cc1nc(N)ncc1-c1nc(N2CCOCC2)c2nc3n(c2n1)CCOC3(C)C [Compound 102, 5-(6,6-dimethyl-4-morpholino-8,9-dihydro-6h-[1,4]oxazino[3,4-e]purin-2-yl)-4-methylpyrimidin-2-amine]?
EC50 [1]: 81 nM; EC50 [2]: 2000 nM

Cn1cc(-c2nc(N3CCOCC3)c3nc4n(c3n2)CCOC4(C)C)cn1 [Compound 127, 6,6-dimethyl-2-(1-methyl-1H-pyrazol-4-yl)-4-morpholino-8,9-dihydro-6H-[1,4]oxazino[3,4-e]purine] was tested. Which IC50 [3] did it give?
The IC50 was greater than 695 nM.

How did the IC50 [3] turn out when CC1(C)OCCn2c1nc1c(N3CCOCC3)nc(-c3ccc4[nH]ncc4c3)nc12 [Compound 129, 2-(1H-indazol-5-yl)-6,6-dimethyl-4-morpholino-8,9-dihydro-6H-[1,4]oxazino[3,4-e]purine] was run?
The IC50 was greater than 695 nM.

How did the IC50 [3] turn out when CN1CCN(c2cc(-c3nc(N4CCOCC4)c4nc5n(c4n3)CCOC5(C)C)ccn2)CC1 [Compound 130, 6,6-dimethyl-2-(2-(4-methylpiperazin-1-yl)yridine-4-yl)-4-morpholino-8,9-dihydro-6H-[1,4]oxazino[3,4-e]purine] was run?
Its IC50 is greater than 695 nM.

CC1(C)OCCn2c1nc1c(N3CCOCC3)nc(-c3ccc(N4CCOCC4)nc3)nc12 [Compound 132, 6,6-dimethyl-4-morpholino-2-(6-morpholinopyridin-3-yl)-8,9-dihydro-6H-[1,4]oxazino[3,4-e]purine] was tested. Which IC50 [3] did it give?
Its IC50 is greater than 695 nM.

For CC1(C)OCCn2c1nc1c(N3CCOCC3)nc(-c3cnn(Cc4ccccc4)c3)nc12 [Compound 133, 2-(1-benzyl-1H-pyrazol-4-yl)-6,6-dimethyl-4-morpholino-8,9-dihydro-6H-[1,4]oxazino[3,4-e]purine], which IC50 [3] is on record?
The IC50 was greater than 695 nM.

With CC(C)Oc1ncccc1-c1nc(N2CCOCC2)c2nc3n(c2n1)CCOC3(C)C [Compound 134, 2-(2-isopropoxypyridin-3-yl)-6,6-dimethyl-4-morpholino-8,9-dihydro-6H-[1,4]oxazino[3,4-e]purine] as the compound, how does the IC50 [3] read?
The IC50 was greater than 695 nM.

How did the IC50 [3] turn out when CC(=O)Nc1ccccc1-c1nc(N2CCOCC2)c2nc3n(c2n1)CCOC3(C)C [Compound 135, N-(2-(6,6-dimethyl-4-morpholino-8,9-dihydro-6H-[1,4]oxazino[3,4-e]purin-2-yl)phenyl)acetamide] was run?
The IC50 was greater than 695 nM.

With Cc1n[nH]c(C)c1-c1nc(N2CCOCC2)c2nc3n(c2n1)CCOC3(C)C [Compound 136, 2-(3,5-dimethyl-1H-pyrazol-4-yl)-6,6-dimethyl-4-morpholino-8,9-dihydro-6H-[1,4]oxazino[3,4-e]purine] as the compound, how does the IC50 [3] read?
Its IC50 is greater than 695 nM.

How did the IC50 [3] turn out when CC1(C)OCCn2c1nc1c(N3CCOCC3)nc(-c3ccc(O)nc3)nc12 [Compound 137, 5-(6,6-dimethyl-4-morpholino-8,9-dihydro-6H-[1,4]oxazino[3,4-e]purin-2-yl)pyridine-2-ol] was run?
Its IC50 is greater than 695 nM.

CCn1cc(-c2nc(N3CCOCC3)c3nc4n(c3n2)CCOC4(C)C)cn1 [Compound 141, 2-(1-ethyl-1H-pyrazol-4-yl)-6,6-dimethyl-4-morpholino-8,9-dihydro-6H-[1,4]oxazino[3,4-e]purine] was tested. Which IC50 [3] did it give?
Its IC50 is greater than 695 nM.

CN(C)C(=O)c1ccc(-c2nc(N3CCOCC3)c3nc4n(c3n2)CCOC4(C)C)cc1 [Compound 142, 4-(6,6-dimethyl-4-morpholino-8,9-dihydro-6H-[1,4]oxazino[3,4-e]purin-2-yl)-N,N-dimethylbenzamide] was tested. Which IC50 [3] did it give?
Its IC50 is greater than 695 nM.

For CN(C(=O)OC(C)(C)C)c1ccc(-c2nc(N3CCOCC3)c3nc4n(c3n2)CCOC4(C)C)cc1 [Compound 143, tert-butyl 4-(6,6-dimethyl-4-morpholino-8,9-dihydro-6H-[1,4]oxazino[3,4-e]purin-2-yl)phenyl(methyl)carbamate], which IC50 [3] is on record?
Its IC50 is greater than 695 nM.

Which IC50 [3] does the source give for CC1(C)OCCn2c1nc1c(N3CCOCC3)nc(-c3cccc(CC#N)c3)nc12 [Compound 144, 2-(3-(6,6-dimethyl-4-morpholino-8,9-dihydro-6H-[1,4]oxazino[3,4-e]purin-2-yl)phenyl)acetonitrile] here?
The IC50 was greater than 695 nM.

For CC1(C)OCCn2c1nc1c(N3CCOCC3)nc(-c3cccc(N4CCOCC4)c3)nc12 [Compound 145, 6,6-dimethyl-4-morpholino-2-(3-morpholinophenyl)-8,9-dihydro-6H-[1,4]oxazino[3,4-e]purine], which IC50 [3] is on record?
The IC50 was greater than 695 nM.

How did the IC50 [3] turn out when CC1(C)OCCn2c1nc1c(N3CCOCC3)nc(-c3cccc(CN4CCOCC4)c3)nc12 [Compound 146, 6,6-dimethyl-4-morpholino-2-(3-(morpholinomethyl)phenyl)-8,9-dihydro-6H-[1,4]oxazino[3,4-e]purine] was run?
Its IC50 is greater than 695 nM.

With CC1(C)OCCn2c1nc1c(N3CCOCC3)nc(-c3cccc(OCc4ccccc4)c3)nc12 [Compound 147, 2-(3-(benzyloxy)phenyl)-6,6-dimethyl-4-morpholino-8,9-dihydro-6H-[1,4]oxazino[3,4-e]purine] as the compound, how does the IC50 [3] read?
The IC50 was greater than 695 nM.

For CN1CCN(c2ccc(-c3nc(N4CCOCC4)c4nc5n(c4n3)CCOC5(C)C)cn2)CC1 [Compound 149, 6,6-dimethyl-2-(6-(4-methylpiperazin-1-yl)yridine-3-yl)-4-morpholino-8,9-dihydro-6H-[1,4]oxazino[3,4-e]purine], which IC50 [3] is on record?
Its IC50 is greater than 695 nM.

Which IC50 [3] does the source give for CC1(C)OCCn2c1nc1c(N3CCOCC3)nc(-c3ccc(C#N)cc3)nc12 [Compound 151, 4-(6,6-dimethyl-4-morpholino-8,9-dihydro-6H-[1,4]oxazino[3,4-e]purin-2-yl)benzonitrile] here?
Its IC50 is greater than 695 nM.

For CNC(=O)c1ccc(-c2nc(N3CCOCC3)c3nc4n(c3n2)CCOC4(C)C)cn1 [Compound 153, 5-(6,6-dimethyl-4-morpholino-8,9-dihydro-6H-[1,4]oxazino[3,4-e]purin-2-yl)-N-methylpicolinamide], which IC50 [3] is on record?
Its IC50 is greater than 695 nM.

With CC1(C)OCCn2c1nc1c(N3CCOCC3)nc(-c3ccc(OCc4ccccc4)cc3)nc12 [Compound 154, 2-(4-(benzyloxy)phenyl)-6,6-dimethyl-4-morpholino-8,9-dihydro-6H-[1,4]oxazino[3,4-e]purine] as the compound, how does the IC50 [3] read?
The IC50 was greater than 695 nM.

How did the IC50 [3] turn out when CN(C)c1cccc(-c2nc(N3CCOCC3)c3nc4n(c3n2)CCOC4(C)C)c1 [Compound 155, 3-(6,6-dimethyl-4-morpholino-8,9-dihydro-6H-[1,4]oxazino[3,4-e]purin-2-yl)-N,N-dimethylaniline] was run?
The IC50 was greater than 695 nM.

Which IC50 [3] does the source give for CN1CCN(c2ccc(-c3nc(N4CCOCC4)c4nc5n(c4n3)CCOC5(C)C)cc2)CC1 [Compound 156, 6,6-dimethyl-2-(4-(4-methylpiperazin-1-yl)phenyl)-4-morpholino-8,9-dihydro-6H-[1,4]oxazino[3,4-e]purine] here?
Its IC50 is greater than 695 nM.

CC1(C)OCCn2c1nc1c(N3CCOCC3)nc(-c3ccc(N4CCCCC4)cc3)nc12 [Compound 157, 6,6-dimethyl-4-morpholino-2-(4-(piperidin-1-yl)phenyl)-8,9-dihydro-6H-[1,4]oxazino[3,4-e]purine] was tested. Which IC50 [3] did it give?
The IC50 was greater than 695 nM.

How did the IC50 [3] turn out when CN1CCN(C(=O)c2ccc(-c3nc(N4CCOCC4)c4nc5n(c4n3)CCOC5(C)C)cc2)CC1 [Compound 161, (4-(6,6-dimethyl-4-morpholino-8,9-dihydro-6H-[1,4]oxazino[3,4-e]purin-2-yl)phenyl)(4-methylpiperazin-1-yl)methanone] was run?
Its IC50 is greater than 695 nM.

Which IC50 [3] does the source give for CC1(C)OCCn2c1nc1c(N3CCOCC3)nc(-c3cccc(C(=O)NC4CC4)c3)nc12 [Compound 162, N-cyclopropyl-3-(6,6-dimethyl-4-morpholino-8,9-dihydro-6H-[1,4]oxazino[3,4-e]purin-2-yl)benzamide] here?
The IC50 was greater than 695 nM.
